Molecular target: T1, LPAAT-β (Homo sapiens, UniProt O15120)
T1 construct: the full-length human LPAAT-β cDNA was amplified by PCR; poly-histidine tag (from pFastBac HTc vector) (N); made in house; host or cells: Sf9 insect cells (baculovirus); membrane fraction used
T1 sequence (O15120 24-278): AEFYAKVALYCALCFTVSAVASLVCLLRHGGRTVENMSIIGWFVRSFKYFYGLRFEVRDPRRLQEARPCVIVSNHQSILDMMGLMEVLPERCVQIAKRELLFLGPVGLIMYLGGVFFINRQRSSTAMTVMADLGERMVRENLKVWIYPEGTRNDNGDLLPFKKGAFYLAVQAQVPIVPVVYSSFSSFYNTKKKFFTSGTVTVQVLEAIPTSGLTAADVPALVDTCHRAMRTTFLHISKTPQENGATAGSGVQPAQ
Test: LPAAT-β cell-free assay (colorimetric primary screen, radiometric/fluorescent TLC secondary assay)
Format: biochemical
Conditions: Sf9 cell membrane overexpressing LPAAT-β
Description: A. Production of Recombinant LPAAT-β for Assays
For the construction of Baculovirus expression vectors, the full-length human LPAAT-β cDNA was amplified by PCR from the DNA template pCE9.LPAAT-β (West et al., DNA Cell Biol. 16:691-701 (1997)) using the primers 5′-[…] […] […] […]-3′ (olpb1F; SEQ ID NO:1) and 5′-[…] […] […]-3′ (olpb1R; SEQ ID NO:2). The ˜870 bp fragment generated was reamplified by PCR using the primers 5′[…] […] […] […] ATC-3′ (olpb2F; SEQ ID NO:3) and 5′-[…] […] […]-3′ (olpb1R; SEQ ID NO:2). The ˜890 bp fragment generated was then cleaved with Sal I and Xba I for insertion into pFastBac™ HTc vector (Life Technologies, Gaithersberg, Md.) between the Sal I and Xba I sites for the generation of the plasmid pFB.LPAAT-β. This plasmid was then transformed into E. coli DH10Bac™ (Life Technologies, Gaithersberg, Md.) for the generation of recombinant Bacmid DNA for transfection in HighFive (Invitrogen, San Diego, Calif.) or SF9 insect cells for the production of recombinant Baculovirus stocks using the protocol described in the Bac-to-Bac® Baculovirus Expression System (Life Technologies, Gaithersberg, Md.), a eukaryotic expression system for generating recombinant baculovirus through site-specific transposition in E. coli. Viral stocks harvested from the transfected cells can then be used to infect fresh insect cells for the subsequence expression of LPAAT-β fusion protein with a poly-histidine tag and a myc-epitope near its N-terminus. The membrane fraction from these Sf9 cells would be the source of LPAAT enzyme.
B. Preparation of Cell Membranes from Sf9 Cells
For the preparation of membranes from Sf9 Cells, all steps are performed on ice or at 4° C. Sf9 cell pellets (˜10^8 cells) were thawed and resuspended in 1-2 ml of buffer A (20 mM Hepes, pH 7.5, 1 mM DTT, 1 mM EDTA, 20% w/v glycerol, 1 mM Benzamidine, 1 μg/ml soybean trypsin inhibitor (SBTI), 1 μg/ml pepstatin A) w/o DTT but with 1 mM Pefabloc. The cells were lysed by sonication using a Branson Sonifier at output=2, duty cycle=2, 10 pulses each at 10s. with the tip of small sonicator probe submerged but not touching the walls. DTT was then added to 1 mM from a 1 M stock. The samples were centrifuged at 1500 rpm for 5 min. The low speed supernatant was saved and centrifuged (TLA 100.3 rotor, polycarbonate tubes, 2 ml/tube or 1.5 ml/tube minimum) at 100000×g for 1 hr. The high speed pellet was resuspend in Buffer A with a probe sonicator (10 pulses @ output #2 and duty cycle 20%) as a source of LPAAT enzyme.
C. Assay of LPAAT-β Activity
LPAAT-β catalyzes the transfer of an acyl group from a donor such as acyl-CoA to LPA. The transfer of the acyl group from acyl-CoA to LPA leads to the release of free CoA, which can be reacted with the thiol reagent, 5,5′-dithiobis(2-nitrobenzoic acid) (DTNB). The reaction between DTNB and the free sulfhydryl group from CoA generates a yellow-colored product, 3-carboxylato-4-nitrothiophenolate (CNP), that absorbs at 413 nm. LPAAT-β derived from Sf9 cell membrane overexpressing LPAAT-β were resuspended in HEPES saline buffer (20 mM HEPES pH 7.5, 150 mM NaCl), 1 mg/ml BSA and 72 μl aliquots were distributed into 96-well microtiter plates. 8 μl of compound of interest at 200 μM dissolved in 100% DMSO was added into each well. 20 μl of 1 mM 18:1-CoA and 1 mM sn-1-18:1 lysoPA was then added to each well to initiate the reaction and allowed to run at room temperature for 25 min. 100 μl of 1 mM DTNB in 100% ethanol was then added to each well to quench the reaction and for color development. The absorbance at 405 nm, measured using a spectrophotometer plate reader, is proportional to the activity of LPAAT-β in the sample. This colorimetric assay was used for the high throughput screening of LPAAT inhibitors.

Compound	IC50 [nM]
CCOc1ccc(Cl)cc1-c1nc(N)nc(Nc2ccc(C)cc2)n1 [Example 61, 6-(5-Chloro-2-ethoxyphenyl)-N-p-tolyl-[1,3,5]triazine-2,4-diamine]	2300
Cc1ccc(Cl)cc1-c1nc(N)nc(Nc2ccc(COC(=O)C[C@H](N)C(=O)O)cc2)n1 [Example 73, (S)-2-Amino-succinic acid 4-{4-[4-amino-6-(5-chloro-2-methyl-phenyl)-[1,3,5]triazin-2-ylamino]-benzyl}ester]	2100
Cc1ccc(Br)c(-c2nc(N)nc(Nc3ccc(Cl)cc3)n2)c1 [Example 86, 6-(2-bromo-5-methyl-phenyl)-N-(4-chloro-phenyl)-[1,3,5]triazine-2,4-diamine]	450
Cc1ccc(Cl)cc1-c1nc(N)nc(Nc2ccc(COC(=O)CC[C@H](N)C(=O)O)cc2)n1 [Example 63, (S)-2-Amino-pentanedioic acid 5-{4-[4-amino-6-(5-chloro-2-methyl-phenyl)-[1,3,5]triazin-2-ylamino]-benzyl}ester]	3100
Cc1ccc(Cl)cc1-c1nc(N)nc(Nc2ccc(CN(C)C)cc2)n1 [Example 58, 6-(5-Chloro-2-methyl-phenyl)-N-(4-dimethylaminomethyl-phenyl)-[1,3,5]triazine-2,4-diamine]	1800
CCOc1ccc(Cl)cc1-c1nc(N)nc(Nc2ccc(C(O)CO)cc2)n1 (stereo not shown) [Example 69]	2600
Cc1ccc(Cl)cc1-c1nc(N)nc(Nc2ccc3c(c2)CCC3)n1 [Example 37, 6-(5-Chloro-2-methyl-phenyl)-N-indan-5-yl-[1,3,5]triazine-2,4-diamine]	590
COc1ccc(Cl)cc1-c1nc(N)nc(Nc2ccccc2)n1 [Example 2, 6-(5-Chloro-2-methoxyphenyl)-N-phenyl-[1,3,5]triazine-2,4-diamine]	2300
CCOc1ccc(Cl)cc1-c1nc(N)nc(Nc2ccc3c(c2)OCO3)n1 [Example 55, N-Benzo[1.3]dioxol-5-yl-6-(5-chloro-2-ethoxy-phenyl)[1,3,5]triazine-2,4-diamine]	800
COCc1ccc(Nc2nc(N)nc(-c3cc(Cl)ccc3C)n2)cc1 [Example 78, 6-(5-Chloro-2-methyl-phenyl)-N-(4-methoxy-methyl-phenyl)-[1,3,5]triazine-2,4-diamine]	640
NCc1nc(Nc2ccc(Br)cc2)nc(-c2cc(Cl)ccc2Cl)n1 [Example 27]	2700
C=Cc1ccc(Nc2nc(N)nc(-c3cc(Cl)ccc3C)n2)cc1 [Example 67, 6-(5-Chloro-2-methyl-phenyl)-N-(4-vinyl-phenyl)-[1,3,5]triazine-2,4-diamine]	710
CCOc1ccc(Cl)cc1-c1nc(N)nc(Nc2ccc3cn[nH]c3c2)n1 [Example 51, 6-(5-Chloro-2-ethoxy-phenyl)-N-(1H-indazol-6-yl)-[1,3,5]triazine-2,4-diamine]	600

Other lines, results leading:

IC50 [nM]	Compound
140	CCOc1ccc(Cl)cc1-c1nc(N)nc(Nc2ccc(Cl)cc2)n1 [Example 7, 6-(5-Chloro-2-ethoxyphenyl)-N-(4-Chlorophenyl)-[1,3,5]triazine-2,4-diamine]
250	Cc1ccc(C)c(-c2nc(N)nc(Nc3ccc(Cl)cc3)n2)c1 [Example 14, N-(4-chlorophenyl)-6-(2,5-dimethylphenyl)-[1,3,5]triazine-2,4-diamine]
210	Cc1ccc(Nc2nc(N)nc(-c3cc(Cl)ccc3Cl)n2)cc1 [Example 49, 6-(2,5-Dichloro-phenyl)-N-p-tolyl-[1,3,5]triazine-2,4-diamine]
130	Cc1ccc(Cl)cc1-c1nc(Cl)nc(Nc2ccc(N=[N+]=[N-])cc2)n1 [Example 35, [6-(5-Chloro-2-methyl-phenyl)-2-chloro-3-yl-[1,3,5]-triazin-4-yl]-(4-azido-phenyl)-amine]
13	Cc1nc(Nc2ccc3cn[nH]c3c2)nc(-c2cc(Cl)ccc2C)n1 [Example 22, [4-(5-Chloro-2-methyl-phenyl)-6-methyl-[1,3,5]triazin-2-yl]-(1H-indazol-6-yl)-amine]
110	Nc1nc(Nc2ccc3cn[nH]c3c2)nc(-c2cc(Cl)ccc2Cl)n1 [Example 48, 6-(2,5-Dichloro-phenyl)-N-(1H-indazol-6-yl)-[1,3,5]triazine-2,4-diamine]
110	Cc1ccc(Cl)cc1-c1nc(N)nc(Nc2ccc(C=O)cc2)n1 [Example 87, 4-[4-Amino-6-(5-chloro-2-methyl-phenyl)-[1,3,5]triazin-2-ylamino]-benzaldehyde]
70	Nc1nc(Nc2ccc(Cl)cc2)nc(-c2cc(Cl)ccc2F)n1 [Example 85, 6-(5-Chloro-2-fluoro-phenyl)-N-(4-chloro-phenyl)-[1,3,5]triazine-2,4-diamine]
10	Cc1ccc(Cl)cc1-c1nc(Cl)nc(Nc2ccc([N+](=O)[O-])cc2)n1 [Example 30, [6-(5-Chloro-2-methyl-phenyl)-2-chloro-3-yl-[1,3,5]-triazin-4-yl]-(4-nitro-phenyl)-amine]
130	Cc1ccc(Cl)cc1-c1nc(N)nc(Nc2ccc(CF)cc2)n1 [Example 68, 6-(5-Chloro-2-methyl-phenyl)-N-(4-fluoromethyl-phenyl)-[1,3,5]-triazine-2,4-diamine]
180	Cc1ccc(Cl)c(-c2nc(N)nc(Nc3ccc(Cl)cc3)n2)c1 [Example 83, 6-(2-chloro-5-methyl-phenyl)-N-(4-chloro-phenyl)-[1,3,5]triazine-2,4-diamine]
200	Cc1ccc(Cl)cc1-c1nc(N)nc(Nc2ccc3c(c2)OCO3)n1 [Example 19, N-Benzo[1.3]dioxol-5-yl-6-(5-chloro-2-methyl-phenyl)-[1,3,5]triazine-2,4-diamine]
440	Nc1nc(Nc2ccc(CO)cc2)nc(-c2cc(Cl)ccc2Cl)n1 [Example 46, {4-[4-Amino-6-(2,5-dichloro-phenyl)-[1,3,5]triazin-2-ylamino]-phenyl}-methanol]
76	COc1ccc(Cl)cc1-c1nc(N)nc(Nc2ccc(Br)cc2)n1 [Example 10, N-2-(4-Bromophenyl)-6-(5-chloro-2-methoxyphenyl)-[1,3,5]triazine-2,4-diamine]
240	Cc1ccc(Cl)cc1-c1ncnc(Nc2ccc(Cl)cc2)n1 [Example 33, [6-(5-Chloro-2-methyl-phenyl)-[1,3,5]triazin-4-yl]-(4-chloro-phenyl)-amine]
140	Cc1ccc(Cl)cc1-c1nc(N)nc(Nc2ccc(CCO)cc2)n1 [Example 57, 2-{4-[4-Amino-6-(5-chloro-2-methyl-phenyl)-[1,3,5]triazin-2-ylamino]-phenyl}-ethanol]
280	C#Cc1ccc(Nc2nc(N)nc(-c3cc(Cl)ccc3C)n2)cc1 [Example 42, 6-(5-Chloro-2-methyl-phenyl)-N-(4-ethynyl-phenyl)-[1,3,5]triazine-2,4-diamine]
140	Nc1nc(Nc2ccc(Cl)cc2)nc(-c2cc(Cl)ccc2Br)n1 [Example 80, 6-(2-Bromo-5-chloro-phenyl)-N-(4-chloro-phenyl)-[1,3,5]triazine-2,4-diamine]

Source: patent US7618968B2, “Aryl triazines as LPAAT-β inhibitors and uses thereof” (Cell Therapeutics, Inc., priority 2001, dated 2009)
